Data reported in ChEMBL document CHEMBL1156972, “Discovery of 2-ureidophenyltriazines bearing bridged morpholines as potent and selective ATP-competitive mTOR inhibitors” (Bioorg Med Chem Lett, 2010).
pIC50: −log10 of the molar value. Active and inactive are the calls of the source. The rule behind the calls is not given here.

How the values were obtained:
[1] = molecular target: Serine/threonine-protein kinase mTOR (Rattus norvegicus, UniProt P42346); test: Inhibition of rat brain mTOR assessed as p70S6K-GST protein phosphorylation after 30 mins by ELISA
LNCaP = test: Antiproliferative activity against human LNCAP cells after 3 days by MTS assay; format: functional, cell-based; settings: 72 h
[2] = Selectivity ratio of IC50 for PI3K to IC50 for rat brain mTOR
[3] = Inhibition of PI3K assessed as PIP3 level after 20 mins by HTRF assay
[4] = Antitumor activity against human U87MG cells xenografted in nude mouse assessed as reduction in tumor volume at 10 mg/kg, po QD for 5 days measured after 8 days relative to control; format: functional, U-87MG ATCC; design: scale not given: the % may be the effect or the level left
U-87MG ATCC [5] = test: Antitumor activity against human U87MG cells xenografted in nude mouse assessed as reduction in tumor volume at 5 to 15 mg/kg, po QD for 5 days measured up to 10 days; format: functional, organism-based
MDA361 = test: Inhibition of PI3K in human MDA361 cells assessed as suppression of P-AKT T308 level at 0.0125 to 10 uM by immunoblotting; format: cell-based
Mus musculus [6] = test: Inhibition of PI3K signalling in human MDA361 cells xenografted in nude mouse assessed as suppression of PI3K/PDK1 level at 10 mg/kg, iv after 8 hrs by immunoblotting; format: functional, organism-based; design: dose 10 mg/kg
Mus musculus [7] = test: Inhibition of mTOR in human MDA361 cells xenografted in nude mouse assessed as suppression of TORC2 level at 10 mg/kg, iv after 8 hrs by immunoblotting; format: functional, organism-based; design: dose 10 mg/kg
Mus musculus [8] = test: Inhibition of mTOR in human MDA361 cells xenografted in nude mouse assessed as suppression of TORC1 level at 25 mg/kg, iv after 8 hrs by immunoblotting; format: functional, organism-based; design: dose 25 mg/kg
U-87MG ATCC [9] = test: Antitumor activity against human U87MG cells xenografted in nude mouse assessed as reduction in tumor volume at 12.5 to 25 mg/kg, po QD for 5 days measured after 9 days; format: functional, organism-based
Mus musculus [10] = test: Inhibition of PI3K signalling in human MDA361 cells xenografted in nude mouse assessed as suppression of PI3K/PDK1 level at 25 mg/kg, iv after 8 hrs by immunoblotting; format: functional, organism-based; design: dose 25 mg/kg
Mus musculus [11] = test: Inhibition of mTOR in human MDA361 cells xenografted in nude mouse assessed as suppression of TORC1 level at 10 mg/kg, iv after 8 hrs by immunoblotting; format: functional, organism-based; design: dose 10 mg/kg
Mus musculus [12] = test: Inhibition of mTOR in human MDA361 cells xenografted in nude mouse assessed as suppression of TORC2 level at 25 mg/kg, iv after 8 hrs by immunoblotting; format: functional, organism-based; design: dose 25 mg/kg
[13] = Antitumor activity against human U87MG cells xenografted in nude mouse assessed as reduction in tumor volume at 5 mg/kg, iv QD for 5 days measured after 9 days relative to control; format: functional, U-87MG ATCC; design: scale not given: the % may be the effect or the level left

Row | pIC50 [1] | pIC50 (LNCaP) | Ratio IC50 [2] | pIC50 [3] | Structure (SMILES) | other results
1 | 9.30 | 7.35 | 282 | 6.85 | O=C(Nc1ccncc1)Nc1ccc(-c2nc(N3CC4CCC(C3)O4)nc(N3CC4CCC(C3)O4)n2)cc1 | 
2 | 8.59 | 7.05 | 802 | 5.67 | O=C(Nc1ccc(-c2nc(N3CC4CCC(C3)O4)nc(N3CC4CCC(C3)O4)n2)cc1)NC1CC1 | 
3 | 8.60 | 6.72 | 272 | 6.17 | CNC(=O)Nc1ccc(-c2nc(N3CC4CCC(C3)O4)nc(N3CC4CCC(C3)O4)n2)cc1 | 
4 | 8.55 | 6.74 | 961 | 5.57 | CCNC(=O)Nc1ccc(-c2nc(N3CC4CCC(C3)O4)nc(N3CC4CCC(C3)O4)n2)cc1 | 

More lines, now with the values behind:

Row | Structure (SMILES) | pIC50 [1] | pIC50 (LNCaP) | Ratio IC50 [2] | pIC50 [3] | other results
5 | FC(F)c1nc2ccccc2n1-c1nc(N2CCOCC2)nc(N2CCOCC2)n1 [ZSTK-474] | 7.35 | 6.68 |  |  | 
6 | FC(F)c1nc2ccccc2n1-c1nc(N2CC3CCC(C2)O3)nc(N2CC3CCC(C2)O3)n1 | 7.36 | 6.17 | 2.8 | 6.91 | 
7 | CN1CCN(c2ccc(NC(=O)Nc3ccc(-c4nc(N5CC6CCC(C5)O6)nc(N5C6CCC5COC6)n4)cc3)cc2)CC1 | 8.70 | > 9.10 | 75 | 6.82 | 
8 | CN1CCN(c2ccc(NC(=O)Nc3ccc(-c4nc(N5C[C@H]6C[C@@H]5CO6)nc(N5C[C@H]6C[C@@H]5CO6)n4)cc3)cc2)CC1 | 6.89 | 6.26 | 14 | 5.74 | 
9 | CN1CCN(c2ccc(NC(=O)Nc3ccc(-c4nc(N5C[C@@H]6C[C@H]5CO6)nc(N5C[C@@H]6C[C@H]5CO6)n4)cc3)cc2)CC1 | 7.46 |  | 98 | 5.46 | 
10 | CN1CCN(c2ccc(NC(=O)Nc3ccc(-c4nc(N5CC6CCC(C5)O6)nc(N5CC6CCC(C5)O6)n4)cc3)cc2)CC1 | 8.77 | 8.64 | 51 | 7.06 | Activity [4]: 44%; Activity (U-87MG ATCC [5]): Active
11 | CN1CCN(c2ccc(NC(=O)Nc3ccc(-c4nc(N5C6CCC5COC6)nc(N5C6CCC5COC6)n4)cc3)cc2)CC1 |  |  |  |  | inhibition (MDA361): Active; inhibition (Mus musculus [6]): inactive; inhibition (Mus musculus [7]): Active; inhibition (Mus musculus [8]): Active; Activity (U-87MG ATCC [9]): Active; inhibition (Mus musculus [10]): Active; inhibition (Mus musculus [11]): Active; inhibition (Mus musculus [12]): Active; Activity [13]: 31%
12 | FC(F)c1nc2ccccc2n1-c1nc(N2CCOCC2)nc(N2CC3CCC(C2)O3)n1 | 7.22 | 6.74 | 0.41 | 7.62 | 
